Results as given in patent US20250073255A1, “USE OF FA-TYPE LIPID COMPOUNDS IN PREPARATION OF NUCLEIC ACID DELIVERY REAGENT AND RELATED PRODUCT” (BEIJING BAISHIKANG PHARMACEUTICAL TECHNOLOGY (BSJPHARMA) …, priority 2021, published 2025).

Test system: C57BL/6 male mice
Assay: In vivo delivery study of lipid nucleic acid mixture (oral gavage, RT-qPCR of PGY-sRNA-26 in tissues)
Parameters: species or system mouse
Conditions: for overall delivery efficacy: delivering nucleic acids into each tissue and blood tested: 100 μg lipid:10 nmol PGY-sRNA-26, all tissues and blood tested; for oral delivery of single-stranded sRNA nucleic acids into mouse blood / oral delivery of single-stranded sRNA nucleic acids into mouse brain tissue / oral delivery of single-stranded sRNA nucleic acids into mouse femur / oral delivery of single-stranded sRNA nucleic acids into mouse heart tissue / oral delivery of single-stranded sRNA nucleic acids into mouse intestinal tissue / oral delivery of single-stranded sRNA nucleic acids into mouse kidney tissue / oral delivery of single-stranded sRNA nucleic acids into mouse liver tissue / oral delivery of single-stranded sRNA nucleic acids into mouse lung tissue / oral delivery of single-stranded sRNA nucleic acids into mouse spleen tissue / oral delivery of single-stranded sRNA nucleic acids into mouse stomach tissue / oral delivery of single-stranded sRNA nucleic acids into mouse pancreatic tissue: 100 μg lipid:10 nmol PGY-sRNA-26, sampled after 12 hours; for oral delivery of single-stranded sRNA nucleic acids into mouse heart tissue: vs free uptake group; for oral delivery of single-stranded sRNA nucleic acids into mouse intestinal tissue: intestine; for oral delivery of single-stranded sRNA nucleic acids into mouse pancreatic tissue: pancreas
Summary of the method: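 Lipid (100 μg) and 10 nmol 3'-methylated single-stranded PGY-sRNA-26 were heated at 90 °C for 15 min, then given by oral gavage to mice fasted 12 h. Controls were saline and free sRNA. Blood and tissues were taken at 12 h, and levels were measured by stem-loop RT-qPCR relative to U6.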

SMILES | overall delivery efficacy: delivering nucleic acids into each tissue and blood tested | oral delivery of single-stranded sRNA nucleic acids into mouse blood | oral delivery of single-stranded sRNA nucleic acids into mouse brain tissue | oral delivery of single-stranded sRNA nucleic acids into mouse femur | oral delivery of single-stranded sRNA nucleic acids into mouse heart tissue | oral delivery of single-stranded sRNA nucleic acids into mouse intestinal tissue | oral delivery of single-stranded sRNA nucleic acids into mouse kidney tissue | oral delivery of single-stranded sRNA nucleic acids into mouse liver tissue | oral delivery of single-stranded sRNA nucleic acids into mouse lung tissue | oral delivery of single-stranded sRNA nucleic acids into mouse spleen tissue | oral delivery of single-stranded sRNA nucleic acids into mouse stomach tissue | oral delivery of single-stranded sRNA nucleic acids into mouse pancreatic tissue
O=C(O)C[C@H]1CCC(=O)[C@@H]1C/C=C\CCO [Lipid 543] | best delivery efficacy | can effectively orally deliver | can effectively orally deliver | can effectively orally deliver | can effectively orally deliver | can effectively orally deliver | can effectively orally deliver | can effectively orally deliver | can effectively orally deliver | can effectively orally deliver | can effectively orally deliver | –
CCCCC/C=C\C/C=C\CCCCCCCC(=O)OC(CC)C(C)CCC (centres unmarked) [Lipid 828, 4-methylheptan-3-yl (9Z,12Z)-octadeca-9,12-dienoate] | – | can effectively orally deliver | can effectively orally deliver | can effectively orally deliver | can effectively orally deliver | can effectively orally deliver | can effectively orally deliver | can effectively orally deliver | can effectively orally deliver | can effectively orally deliver | can effectively orally deliver | can effectively orally deliver
CCCCC/C=C\C/C=C\CCCCCCCCOC(=O)CCCCCCCCCCCCCCC [Lipid 804, [(9Z,12Z)-octadeca-9,12-dienyl] hexadecanoate] | – | can effectively orally deliver | can effectively orally deliver | can effectively orally deliver | can effectively orally deliver | can effectively orally deliver | can effectively orally deliver | can effectively orally deliver | can effectively orally deliver | can effectively orally deliver | can effectively orally deliver | can effectively orally deliver
CCCCC(N)=O [Lipid 610] | – | – | – | can effectively orally deliver | – | – | can effectively orally deliver | – | can effectively orally deliver | can effectively orally deliver | can effectively orally deliver | –
CCCCCC/C=C\CCCCCCCC(=O)OCCCCCCCCCCCCCCCCC [Lipid 818, heptadecyl (Z)-hexadec-9-enoate] | – | can effectively orally deliver | can effectively orally deliver | can effectively orally deliver | can effectively orally deliver | can effectively orally deliver | can effectively orally deliver | can effectively orally deliver | can effectively orally deliver | can effectively orally deliver | can effectively orally deliver | can effectively orally deliver
CC1(O)CCOC(=O)C1 (centres unmarked) [Lipid 603, 4-hydroxy-4-meth-yl-oxan-2-one] | best delivery efficacy | can effectively orally deliver | can effectively orally deliver | can effectively orally deliver | can effectively orally deliver | can effectively orally deliver | can effectively orally deliver | can effectively orally deliver | can effectively orally deliver | can effectively orally deliver | can effectively orally deliver | –
CCCCCC/C=C\CCCCCCCC(=O)OCCCCCCCCCCCCCCCCCCCCCCCC [Lipid 819, tetracosyl (Z)-hexadec-9-enoate] | – | can effectively orally deliver | can effectively orally deliver | can effectively orally deliver | can effectively orally deliver | can effectively orally deliver | can effectively orally deliver | can effectively orally deliver | can effectively orally deliver | can effectively orally deliver | can effectively orally deliver | can effectively orally deliver
N[C@H](CCCC(=O)O)C(=O)O [Lipid 625, (2R)-2-aminohexanedioic acid] | best delivery efficacy | can effectively orally deliver | can effectively orally deliver | can effectively orally deliver | can effectively orally deliver | can effectively orally deliver | can effectively orally deliver | can effectively orally deliver | can effectively orally deliver | can effectively orally deliver | can effectively orally deliver | –
CCCCCC(=O)OCCCC [Lipid 613, butyl hexanoate] | best delivery efficacy | can effectively orally deliver | can effectively orally deliver | can effectively orally deliver | can effectively orally deliver | can effectively orally deliver | can effectively orally deliver | can effectively orally deliver | can effectively orally deliver | can effectively orally deliver | can effectively orally deliver | –
CCCCCC/C=C\CCCCCCCC(=O)OCCCCCCCCCCCCCCC [Lipid 821, pentadecyl (Z)-hexadec-9-enoate] | – | can effectively orally deliver | can effectively orally deliver | can effectively orally deliver | can effectively orally deliver | can effectively orally deliver | can effectively orally deliver | can effectively orally deliver | can effectively orally deliver | can effectively orally deliver | can effectively orally deliver | can effectively orally deliver
